Patent US8293802B2, “Gentle-acting skin-disinfectants and hydroalcoholic gel formulations” (The Trustees of Columbia University, priority 2001, dated 2012)
Like-named read-outs stand apart in the source and are kept apart here.

Experiments:
S. aureus = assay: Rapid antimicrobial activity: test gel/base mixed with culture and bovine adult serum, 15 seconds, colony count; assay type: cell-based, Staphylococcus aureus; conditions: for S. aureus (cfu/tube) / Growth (CFU/ml): control 1 × 10^8; for Growth (cfu/tube): Table 7, control (without gel base) 2.5-4.2 × 10^8; for antimicrobial activity against S. aureus (in words): Tables 1 and 2
Method: Antimicrobial activity was evaluated using the following assay. 1 milliliter of 10^8 colony-forming units (“cfus”) of test organism per milliliter was added to 1 milliliter of bovine adult serum in a sterile culture tube and mixed. 1 milliliter of the test gel was added to each tube, and was vortexed to mix. After 15 seconds, three 0.5 ml aliquots were removed and further diluted 1:1000 with LTSB (lecithin-containing trypticase soy broth) drug-inactivating medium, and, of the resulting liquid, 0.5 milliliters were plated on each trypticase soy agar (“TSA”) plate. The resulting plates were incubated at 37° C. for 24 hours and the colony count per tube was determined.

[1] = at 22° C.; cited from earlier work
[2] = Table 2, alcohol gel base, 15 seconds
[3] = Table 5, alcohol gel base, 15 seconds
[4] = Table 10, aqueous base of Example 8, 15 seconds, aqueous base control 5.0 × 10^8
[5] = Table 1, alcohol gel base of Example 1, 15 seconds, bovine adult serum
[6] = Table 1, alcohol gel base, 15 seconds
[7] = Table 3, alcohol gel base, 15 seconds

benzalkonium chloride [0.12% BZK]
Log 10 cfu reduction relative to control (S. aureus; [2]): 0.8 log 10
fold reduction relative to control (S. aureus; [2]): 6.25 fold
S. aureus (cfu/tube) (S. aureus; [2]): 1.6 × 10^7 cfu/tube
fold reduction relative to control (S. aureus; [3]): 6.25 fold
Growth (CFU/ml) (S. aureus; [3]): 1.6 × 10^7 CFU/ml
Growth (cfu/tube) (S. aureus; alcohol gel base, 15 seconds): 1.6 × 10^7 cfu/tube
Staphylococcus aureus (CFU/tube) (S. aureus; [4]): 2.0 × 10^8 CFU/tube
antimicrobial activity against S. aureus (in words) (S. aureus; alcohol gel base): minimal or no antimicrobial activity

CCCCC(CC)COCC(O)CO (stereo not drawn) [3.0% Sensiva, glycerol 1-(2-ethylhexyl)ether]
S. aureus (cfu/tube) (S. aureus; [5]): 1 × 10^6 cfu/tube
fold-reduction relative to control (S. aureus; [6]): 100 fold

Oc1cc(Cl)ccc1Oc1ccc(Cl)cc1Cl [0.3% TC, triclosan]
fold reduction relative to control (S. aureus; [3]): 0 fold
Growth (CFU/ml) (S. aureus; [3]): 1.0 × 10^8 CFU/ml

N=C(NCCCCCCNC(=N)NC(=N)Nc1ccc(Cl)cc1)NC(=N)Nc1ccc(Cl)cc1.O=C(O)[C@H](O)[C@@H](O)[C@H](O)[C@H](O)CO.O=C(O)[C@H](O)[C@@H](O)[C@H](O)[C@H](O)CO [0.25% CHG, chlorhexidine digluconate]
Log 10 cfu reduction relative to control (S. aureus; [7]): 1.1 log 10
fold reduction relative to control (S. aureus; [7]): 12.5 fold
S. aureus (cfu/tube) (S. aureus; [7]): 8 × 10^6 cfu/tube

CCCCC(CC)COCC(O)CO (stereo not drawn) [0.5% Sensiva, glycerol 1-(2-ethylhexyl)ether]
S. aureus (cfu/tube) (S. aureus; [5]): 1 × 10^7 cfu/tube
fold-reduction relative to control (S. aureus; [6]): 2.5 fold
Growth (cfu/tube) (S. aureus; alcohol gel base, 15 seconds): 4.0 × 10^7 cfu/tube

CCCCC(CC)COCC(O)CO (stereo not drawn) [1.0% Sensiva, glycerol 1-(2-ethylhexyl)ether]
S. aureus (cfu/tube) (S. aureus; [5]): 4 × 10^7 cfu/tube
fold-reduction relative to control (S. aureus; [6]): 9 fold
Log 10 cfu reduction relative to control (S. aureus; [2]): 1 log 10
fold reduction relative to control (S. aureus; [2]): 10 fold
S. aureus (cfu/tube) (S. aureus; [2]): 4 × 10^7 cfu/tube
Growth (cfu/tube) (S. aureus; alcohol gel base, 15 seconds): 1.0 × 10^7 cfu/tube
Staphylococcus aureus (CFU/tube) (S. aureus; [4]): 5.0 × 10^8 CFU/tube

povidone iodine [1.0% PVI]
fold reduction relative to control (S. aureus; [3]): 5 fold
Growth (CFU/ml) (S. aureus; [3]): 2.0 × 10^7 CFU/ml

N=C(NCCCCCCNC(=N)NC(=N)Nc1ccc(Cl)cc1)NC(=N)Nc1ccc(Cl)cc1.O=C(O)[C@H](O)[C@@H](O)[C@H](O)[C@H](O)CO.O=C(O)[C@H](O)[C@@H](O)[C@H](O)[C@H](O)CO [0.5% CHG, chlorhexidine digluconate]
Log 10 cfu reduction relative to control (S. aureus; [7]): 1.4 log 10
fold reduction relative to control (S. aureus; [7]): 23.8 fold
S. aureus (cfu/tube) (S. aureus; [7]): 4.2 × 10^6 cfu/tube

N=C(NCCCCCCNC(=N)NC(=N)Nc1ccc(Cl)cc1)NC(=N)Nc1ccc(Cl)cc1.O=C(O)[C@H](O)[C@@H](O)[C@H](O)[C@H](O)CO.O=C(O)[C@H](O)[C@@H](O)[C@H](O)[C@H](O)CO [0.05% CHG, chlorhexidine digluconate]
Log 10 cfu reduction relative to control (S. aureus; [7]): 1.0 log 10
fold reduction relative to control (S. aureus; [7]): 9 fold
S. aureus (cfu/tube) (S. aureus; [7]): 1.1 × 10^7 cfu/tube
fold reduction relative to control (S. aureus; [3]): 9 fold
Growth (CFU/ml) (S. aureus; [3]): 1.1 × 10^7 CFU/ml
Growth (cfu/tube) (S. aureus; alcohol gel base, 15 seconds): 1.1 × 10^7 cfu/tube
Staphylococcus aureus (CFU/tube) (S. aureus; [4]): 2.5 × 10^8 CFU/tube

polyhexamethylene biguanide [0.3% PHMB]
Staphylococcus aureus (CFU/tube) (S. aureus): 1.0 × 10^7 CFU/tube
fold reduction relative to control (S. aureus; [3]): 33 fold
Growth (CFU/ml) (S. aureus; [3]): 3.0 × 10^6 CFU/ml

neomycin [0.3% Neomycin]
fold reduction relative to control (S. aureus; [3]): 4.3 fold
Growth (CFU/ml) (S. aureus; [3]): 2.3 × 10^7 CFU/ml

CCCCC(CC)COCC(O)CO (stereo not drawn) [5.0% Sensiva, glycerol 1-(2-ethylhexyl)ether]
S. aureus (cfu/tube) (S. aureus; [5]): 1 × 10^6 cfu/tube
fold-reduction relative to control (S. aureus; [6]): 100 fold

CC(C)(C)CC(C)(C)c1ccc(OCCOCC[N+](C)(C)Cc2ccccc2)cc1 [0.12% BZT, benzethonium chloride]
fold reduction relative to control (S. aureus; [3]): 10 fold
Growth (CFU/ml) (S. aureus; [3]): 1.0 × 10^7 CFU/ml

CCCCC(CC)COCC(O)CO (stereo not drawn) [Sensiva SC 50, glycerol 1-(2-ethylhexyl)ether]
water solubility [1]: approximately 1.8 g/l

CCCCC(CC)COCC(O)CO (stereo not drawn) [2.0% Sensiva, glycerol 1-(2-ethylhexyl)ether]
S. aureus (cfu/tube) (S. aureus; [5]): 3 × 10^6 cfu/tube
fold-reduction relative to control (S. aureus; [6]): 33 fold
Log 10 cfu reduction relative to control (S. aureus; [2]): 1.5 log 10
fold reduction relative to control (S. aureus; [2]): 33 fold
S. aureus (cfu/tube) (S. aureus; [2]): 3 × 10^6 cfu/tube
fold reduction relative to control (S. aureus; [3]): 33 fold
Growth (CFU/ml) (S. aureus; [3]): 3 × 10^6 CFU/ml
Fold Reduction Compared to Control (S. aureus; Table 6, alcohol gel base, 15 seconds): 33 fold
Growth (CFU/ML) (S. aureus; Table 6, alcohol gel base, 15 seconds, control 1.0 × 10^8): 3.0 × 10^6 CFU/ML

benzalkonium chloride [0.5% BZK]
Log 10 cfu reduction relative to control (S. aureus; [2]): 1.4 log 10
fold reduction relative to control (S. aureus; [2]): 27 fold
S. aureus (cfu/tube) (S. aureus; [2]): 3.7 × 10^6 cfu/tube

benzalkonium chloride [0.19% BZK]
Log 10 cfu reduction relative to control (S. aureus; [2]): 0.7 log 10
fold reduction relative to control (S. aureus; [2]): 5 fold
S. aureus (cfu/tube) (S. aureus; [2]): 2 × 10^7 cfu/tube
antimicrobial activity against S. aureus (in words) (S. aureus; alcohol gel base): minimal or no antimicrobial activity

Clc1ccc(COC(Cn2ccnc2)c2ccc(Cl)cc2Cl)c(Cl)c1 (stereo not drawn) [1.0% Miconazole, miconazole]
fold reduction relative to control (S. aureus; [3]): 0 fold
Growth (CFU/ml) (S. aureus; [3]): 1.0 × 10^8 CFU/ml

benzalkonium chloride [0.019% BZK]
Growth (cfu/tube) (S. aureus; alcohol gel base, 15 seconds): 8.0 × 10^7 cfu/tube
